Data as given in patent US7445641B1, “Biomaterials modified with superoxide dismutase mimics” (priority 1999, dated 2008).

Assay: Stopped-flow kinetic analysis of superoxide dismutation
Type: biochemical
Design: kcat pH 8.1 / kcat pH 7.4: unit not given here
Text: Stopped-flow kinetic analysis is an accurate and direct method for quantitatively monitoring the decay rates of superoxide in water.
For the attainment of consistent and accurate measurements all reagents were biologically clean and metal-free. To achieve this, all buffers (Calbiochem) were biological grade, metal-free buffers and were handled with utensils which had been washed first with 0.1N HCl, followed by purified water, followed by a rinse in a 10^−4 M EDTA bath at pH 8, followed by a rinse with purified water and dried at 65° C. for several hours. Dry DMSO solutions of potassium superoxide (Aldrich) were prepared under a dry, inert atmosphere of argon in a Vacuum Atmospheres dry glovebox using dried glassware. The DMSO solutions were prepared immediately before every stopped-flow experiment. A mortar and pestle were used to grind the yellow solid potassium superoxide (~100 mg). The powder was then ground with a few drops of DMSO and the slurry transferred to a flask containing an additional 25 ml of DMSO. The resultant slurry was stirred for ½ h and then filtered. This procedure gave reproducibly ~2 mM concentrations of superoxide in DMSO. These solutions were transferred to a glovebag under nitrogen in sealed vials prior to loading the syringe under nitrogen. It should be noted that the DMSO/superoxide solutions are extremely sensitive to water, heat, air, and extraneous metals. A fresh, pure solution has a very slight yellowish tint.
Water for buffer solutions was delivered from an in-house deionized water system to a Barnstead Nanopure Ultrapure Series 550 water system and then double distilled, first from alkaline potassium permanganate and then from a dilute EDTA solution. For example, a solution containing 1.0 g of potassium permanganate, 2 liters of water and additional sodium hydroxide necessary to bring the pH to 9.0 were added to a 2-liter flask fitted with a solvent distillation head. This distillation will oxidize any trace of organic compounds in the water. The final distillation was carried out under nitrogen in a 2.5-liter flask containing 1500 ml of water from the first still and 1.0×10^−6 M EDTA. This step will remove remaining trace metals from the ultrapure water. To prevent EDTA mist from volatilizing over the reflux arm to the still head, the 40-cm vertical arm was packed with glass beads and wrapped with insulation. This system produces deoxygenated water that can be measured to have a conductivity of less than 2.0 nanomhos/cm^2.
The stopped-flow spectrometer system was designed and manufactured by Kinetic Instruments Inc. (Ann Arbor, Mich.) and was interfaced to a MAC IICX personal computer. The software for the stopped-flow analysis was provided by Kinetics Instrument Inc. and was written in QuickBasic with MacAdios drivers. Typical injector volumes (0.10 ml of buffer and 0.006 ml of DMSO) were calibrated so that a large excess of water over the DMSO solution were mixed together. The actual ratio was approximately 19/1 so that the initial concentration of superoxide in the aqueous solution was in the range 60-120 μM. […]

SMILES | kcat pH 7.4 | kcat pH 8.1
[Cl-].[Cl][Fe]1234([Cl])[N]5CC[N]1C1CCCCC1[N]2CC[N]3C1CCCCC1[N]4CC5 (stereo not shown) [Compound 20] | 3.29 | 0.93
CC(C)(C)SC[C@H]1C[N]2[C@@H]3CCCC[C@H]3[N]3C[C@H](CSC(C)(C)C)[N]4CC[N]5CC[N]1[Mn]5423([Cl])[Cl] [Compound 21] | 2.93 | 1.29
N#C[S][Mn]1234([S]C#N)[N]5CC[N]1C1CCCCC1[N]2CC[N]3C1CCCC[C@H]1[N]4CC5 (stereo partly shown) [Compound 22] | 11.40 | 5.03
OC[C@@H]1C[N]2CC[N]3[C@@H](CO)C[N]4[C@H](CO)C[N]5[C@@H](CO)C[N]1[Mn]2345([Cl])[Cl] [Compound 23] | 6.61 | 3.47
C[C@@H]1C[N]2[C@@H](C)C[N]3CC[N]4C[C@H](C)[N]5[C@@H](COc6ccco6)C[N]1[Mn]3425([Cl])[Cl] [Compound 24] | 2.55 | 2.55
COC(=O)C1=C(C(=O)OC)C2OC1C=C2COC[C@H]1C[N]2[C@H](C)C[N]3[C@@H](C)C[N]4CC[N]5[C@H](C)C[N]1[Mn]4523([Cl])[Cl] (stereo partly shown) [Compound 25] | 4.04 | 2.34
OC[C@@H]1C[N]2[C@@H]3CCCC[C@H]3[N]3CC[N]4C5CCCCC5[N]5CC[N]1[Mn]5432([Cl])[Cl] (stereo partly shown) [Compound 26] | 10.12 | 3.47
C[C@H]1C[N]2[C@@H](CCCO)C[N]3[C@@H]4CCCC[C@H]4[N]4C[C@H](CCCO)[N]5CC[N]1[Mn]5243([Cl])[Cl] [Compound 27] | 4.83 | 2.50
C[C@@H]1C[N]2[C@@H](CCCN)C[N]3[C@@H]4CCCC[C@H]4[N]4CC[N]5[C@@H](C)C[N]1[Mn]2435([Cl])[Cl] [Compound 31] | 2.97 | 2.91
C[C@@H]1C[N]2[C@@H](CCCNC(=O)CCC(=O)O)C[N]3[C@@H]4CCCC[C@H]4[N]4CC[N]5[C@@H](C)C[N]1[Mn]2435([Cl])[Cl] [Compound 32] | 1.74 | 1.43
CC(=O)OC[C@@H]1C[N]2CC[N]3[C@@H](COC(C)=O)C[N]4[C@H](COC(C)=O)C[N]5[C@@H](COC(C)=O)C[N]1[Mn]2345([Cl])[Cl] [Compound 33] | 7.27 | 4.08
CCC(=O)OCC1C[N]2CC[N]3[C@@H](COC(=O)CC)C[N]4[C@@H](COC(=O)CC)C[N]5[C@@H](COC(=O)CC)C[N]1[Mn]2354([Cl])[Cl] (stereo partly shown) [Compound 34] | 2.70 | 2.78
C[C@H]1C[N]2[C@@H](C)C[N]3[C@@H](CCCNC(=O)CC(CC(=O)O)NC(=O)CNC(=O)c4cccc(NC(=N)N)c4)C[N]4[C@H]5CCCC[C@H]5[N]5CC[N]1[Mn]3524([Cl])[Cl] (stereo partly shown) [Compound 35] | 4.38 | 2.87
O=C(OC[C@H]1C[N]2[C@@H](COC(=O)c3ccccc3)C[N]3[C@@H](COC(=O)c4ccccc4)C[N]4[C@@H](COC(=O)c5ccccc5)C[N]5CC[N]1[Mn]5423([Cl])[Cl])c1ccccc1 [Compound 36] | 0.63 | 0.49
CC(C)C(=O)OC[C@@H]1C[N]2[C@@H]3CCCC[C@H]3[N]3CC[N]4C5CCCCC5[N]5CC[N]1[Mn]5432([Cl])[Cl] (stereo partly shown) [Compound 37] | 3.08 | 
CCC(=O)OC[C@H]1C[N]2[C@@H]3CCCC[C@H]3[N]3CC[N]4C5CCCCC5[N]5CC[N]1[Mn]5432([Cl])[Cl] (stereo partly shown) [Compound 39] | 3.89 | 2.32
